Source: patent US6767890B1, “Peptides having anti-cancer and anti-inflammatory activity” (priority 1998, dated 2004)
Where “and” joins values, the source holds several entries; their conditions need not be identical. Equal entries are not always repeated.

What was measured:
[1] = test system: oxazolone-induced ear swelling; test: Immune Suppression, Cellular (oxazolone ear thickness); type: in vivo, mouse; settings: IP, Peptide 100 mg/kg × 5, Cyclophosphamide 30 mg/kg × 5
Protocol: (§1) For in vivo assay, distilled water and saline was used as vehicle in oral and intraperitoneal administration, respectively. Dosing volume was 20 ml/kg for mice or 10 ml/kg for rats.
Groups of 5 ICR derived male mice weighing 22±1 gms were used. The preshaved abdominal surface was sensitized by application of oxazolone 0.1 ml of 5% solution. […] After additional four days, the animals were challenged by secondary application of oxazolone (0.025 ml of 5% solution) to the right ear. After a further 24 hours, each mouse was sacrificed and ear thickness measured with a Dyer Model micrometer gauge. A 30 percent or more (≧30%) decrease relative to the vehicle control group was considered significant and indicated possible immunosuppressant activity.

[2] = target: T1, Histamine H3 (Rattus norvegicus, UniProt Q9QYN8); test: Histamine H3 radioligand binding; settings: historical value
T1 construct: rat brain; from tissue; host or cells: rat brain
T1 sequence (Q9QYN8 whole entry): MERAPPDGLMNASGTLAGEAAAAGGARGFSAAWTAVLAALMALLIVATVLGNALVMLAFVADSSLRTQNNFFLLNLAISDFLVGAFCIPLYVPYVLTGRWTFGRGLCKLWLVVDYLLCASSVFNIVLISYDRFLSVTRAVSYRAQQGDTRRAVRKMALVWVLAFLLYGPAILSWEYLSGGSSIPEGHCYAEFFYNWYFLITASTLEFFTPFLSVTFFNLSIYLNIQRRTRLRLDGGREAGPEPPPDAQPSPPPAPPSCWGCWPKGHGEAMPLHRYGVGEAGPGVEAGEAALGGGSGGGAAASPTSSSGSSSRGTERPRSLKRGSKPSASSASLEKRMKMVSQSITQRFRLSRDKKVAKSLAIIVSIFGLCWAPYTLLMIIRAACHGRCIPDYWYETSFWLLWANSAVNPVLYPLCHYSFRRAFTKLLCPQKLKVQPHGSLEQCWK
Protocol: The peptide was further screened in vitro in a variety of enzyme and biochemical assays. Methods employed were adapted from the scientific literature to maximize reliability and reproducibility. The primary literature reference for each assay is listed in Table 11 opposite the results for each assay.
Results presented in Table 10, “Results,” are the average of duplicate determinations, unless otherwise noted.
Reference compounds were tested concurrently at 5 concentrations as an integral part of each assay to ensure the validity of the results obtained.
Radioligand binding assays were performed under conditions described in Table 8, “Experimental Conditions.” Radioligands employed in this study are given in Table 8, and commercial sources and catalog numbers of the radioligands are provided in Table 7, “Material Sources.” Unlabeled, blocking ligands employed this study are listed in Table 8, “Experimenal Conditions,” along with the commercial sources and catalog number of the unlabeled ligand. The concurrent reference compound (control) employed in each assay is listed in Table 9, “Reference Compound Data,” along with the commercial supplier and catalog number of the compound. […]
Maximum total binding and nonspecific binding were determined each time each assay was run. […]
Where inhibition constants (Ki) are presented, the Ki values were calculated using the equation of Cheng and Prusoff (Cheng, Y., Prusoff, W. H., Biochem. Pharmacol. […], 1973) using the observed IC50 of the tested compound, the concentration of radioligand employed in the assay, and the historical values for the Kd of the ligand (obtained experimentally). Where presented, the Hill Coefficient (nH), defining the scope of the competitive binding curve, was calculated using GraphPad Prism. […] Where IC50, Ki, and/or Hill Slope data is presented without Standard Error of the Mean (SEM), data are insufficient to be quantitative, and the values presented (Ki, IC50, nH) should be interpreted with caution. […]

[3] = test system: Adjuvant Induced Arthritis; test: Adjuvant Induced Arthritis Model; type: in vivo; settings: rat, 20 mg per KG body weight orally once per day for 14 days, Day 14
Protocol: Adjuvant Induced Arthritis Model: Male Sprague-Dawley rats (160-180 g) were sensitized by injecting Fruend's Complete Adjuvant (0.5% suspension of killed mycobacterium tuberculosis (H37RA, Difco in mineral oil)). 0.05 ml was administered intradermally at a plantar site on the right hind leg of each rat. The test materials were given orally (by gavage) in 0.5% methylcelluose, at a dose level of 20 milligrams per kilo body weight, and given once per day for 14 days. The administration was started the day after sensitization. The left hind paw was measured just before sensitization and on Day 14, and the plantar edema inhibitory rate and the body weight gain rate were determined in comparison with the nonsensitized rat groups. The paw weights for each group in each test run were averaged. Activity was calculated as follows: [formula]
The Anti-inflammatory response is the difference in the mean foot volume. […] FIG. 4.

[4] = target: T2, histamine H3 receptor (Cavia porcellus, UniProt Q9JI35); test: Histamine H3 Agonism/Antagonism, guinea pig ileum; type: cell-based; settings: Peptide 30 μM, Thioperamide 0.3 μM; for Agonism, Ave.: R(α)-Methylhistamine 0.3 μM; for Agonism: relaxation within 5 minutes relative to 0.3 μM R-α-methylhistamine, R(α)-Methylhistamine 0.3 μM (0.1 printed in r13)
T2 construct: ileum obtained from Duncan Hartley derived male or female guinea pigs; from tissue; host or cells: guinea pig ileum segment, field-stimulated
T2 sequence (Q9JI35 whole entry): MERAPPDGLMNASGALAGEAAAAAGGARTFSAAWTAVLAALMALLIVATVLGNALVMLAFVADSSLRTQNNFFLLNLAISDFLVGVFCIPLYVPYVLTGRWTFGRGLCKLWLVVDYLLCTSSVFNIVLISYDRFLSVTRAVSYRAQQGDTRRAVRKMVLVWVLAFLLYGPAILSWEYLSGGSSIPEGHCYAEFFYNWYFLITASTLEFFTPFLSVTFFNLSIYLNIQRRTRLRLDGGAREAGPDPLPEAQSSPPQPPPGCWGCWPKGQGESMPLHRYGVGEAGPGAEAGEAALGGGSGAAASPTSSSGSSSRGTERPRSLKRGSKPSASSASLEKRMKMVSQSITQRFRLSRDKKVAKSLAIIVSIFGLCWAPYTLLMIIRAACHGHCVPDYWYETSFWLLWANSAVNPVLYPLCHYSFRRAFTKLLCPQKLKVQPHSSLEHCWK
Protocol: A segment of ileum obtained from Duncan Hartley derived male or female guinea pigs weighing 325±25 gms and sacrificed by CO2 overexposure were used. The tissue was placed under 0.5 g tension in a 10 ml bath containing Kreb's solution pH 7.4 and pyrilamine (0.3 μM) at 32° C. and subjected to field stimulation (70% of maximum voltage, 0.1 Hz, 0.5 millisecond). Test substance (30 μM)-induced reduction of isometrically recorded contractions 50 percent or more (≧50%) within 5 minutes, relative to control 0.3 μM R-α-methylhistamine response, indicated possible histamine H3 receptor agonist activity. At a test substance concentration where no significant agonist activity was seen, ability to inhibit R-α-methylhistamine-induced response by 50 percent or more (≧50%) indicated histamine H3 receptor antagonist activity. Each concentration was tested on two separate preparations.

[5] = test system: ovalbumin-induced bronchoconstriction; test: Pulmonary, Histamine H3 (ovalbumin-induced bronchoconstriction); type: in vivo, guinea pig; settings: Peptide PO 10 mg/kg, R-α-methylhistamine IV 30 mg/kg
Protocol: as §1
A group of Duncan Hartley derived male or female guinea pigs weighing 250±50 gms were anesthetized with pentobarbital sodium (50 mg/kg IP plus an additional 15 mg/kg IP if required) and succinylcholine chloride (2 mg/animal IP) was subsequently administered to prevent spontaneous respiration. Body temperature was maintained at 37° to 38° C. The trachea was cannulated and the guinea pig ventilated with a Harvard rodent respirator in a closed system. Tracheal pressure (TP) was recorded through a side-arm of the cannula connected to a P23ID Statham transducer. Respiratory rate set at 50 strokes/minute with a stroke volume (approximately 1 ml/100 g) sufficient to produce a baseline tracheal pressure of 6 cm H2O. Mean arterial pressure was monitored from a cannulated carotid artery, and heart rate was obtained from chest electrodes arranged for lead II. The jugular vein was cannulated for IV vehicle or drug administration in a volume of 1 ml/kg. Guinea pigs were sensitized with IP injections of ovalbumin 0.5 μg+Al(OH)3 1 mg (0.5 ml/animal) on days 1, and boosted with same dosage of ovalbumin and Al(OH)3 vaccine on day 8; and the animals were ready to be challenged between days 19 and 23 to get a submaximal ovalbumin (50 μg/kg IV)-induced bronchoconstriction, reflected as an increase in tracheal pressure (cm H2O). […]. Test substances were administered PO (10 mg/kg) at 60 minutes before ovalbumin (50 μg/kg IV) challenge in 3 guinea pigs. Tracheal pressure, blood pressure and heart rate were measured immediately before and after ovalbumin challenge.

[6] = test system: DNBS-induced distal colitis; test: Inflammation, Inflammatory Bowel Disease (DNBS distal colitis); type: in vivo, rat; settings: PO, Peptide 30 mg/kg × 7, Sulfasalazine 300 mg/kg × 7
Protocol: as §1
Groups of 3 Sprague-Dawley derived male rats weighing 150±20 gms and fasted for 24 hours were used. Distal colitis was induced by intra-colonic instillation of DNBS (2,4-dinitrobenzene sulfonic acid, 30 mg in 0.5 ml ethanol 30%) after which air (2 ml) was gently injected through the cannula to ensure that the solution remains in the colon. Test substance was administered PO (30 mg/kg) at 24 and 2 hours before DNBS instillation. Then, the animals received test compound every 24 hours for 5 consecutive days. The control group was given vehicle alone as compound dosing pattern. The animals were sacrificed 24 hours after the final dose of test compound administration and each colon was removed and weighed. Colon-to-body weight ratio was obtained from the percentage of the comparison between the animal colon weight and body weight on the 8th day. A 30 percent or more (±30%) reduction in colon-to-body weight ratio relative to the vehicle treated control group was considered significant.

[7] = test system: PAF-induced mortality; test: Platelet Activating Factor (PAF) Antagonism; type: in vivo, mouse; settings: Peptide 100 mg/kg, WEB-2086 3 mg/kg
Protocol: as §1
Groups of 5 male ICR mice weighing 22±2 gms were employed. At dose of 100 mg/kg test substance dissolved in a vehicle of distilled water were administered orally. The control group received vehicle alone. At 60 minutes after dosing, the animals were injected intravenously PAF-acether ([…] IV, dissolved in 0.25% BSA). One hour later, the survival animals were recorded. The prevention of PAF-induced mortality in 50 percent or more (≧50%) of mice indicated significant activity.

[8] = test system: Sarcoma 180 tumor; test: Anti-Cancer Activity Against Mouse Tumor Sarcoma 180; type: in vivo; settings: 10 mg/kg
Protocol: This model has been used extensively as indicative of neovascularization in mammals inasmuch as the tumor so implanted is quickly vascularizing.
Experimental Design: All mice were weighed at test initiation and test termination. The animals were divided into three groups. The Sarcoma 180 tumor was made up from a passage mouse to furnish […] per 0.1 mL inoculum. The cells were injected into the left leg hamstring muscle mass. The was delivered to the mice by I.P. injections, or gavage on days 1-5.
At the termination of the experiments, the mice were weighed and the left rear leg was amputated at the thigh. The skin was removed from the leg to expose the site at which the tumor was located. […].

Compound: O=P1(N(CCCl)CCCl)NCCCO1 (centres unmarked) [Cyclophosphamide, Cyclophosphamide Monohydrate]
- % INH. ([1]; decrease of net ear thickness relative to vehicle control): 51%
- Thickness Net, X (group mean) ([1]; group mean): 13.4 × 0.1 mm
- Thickness Net ([1]; individual mouse, R. Ear minus L. Ear, Monohydrate): 16 × 0.1 mm and 10 × 0.1 mm and 14 × 0.1 mm and 7 × 0.1 mm and 20 × 0.1 mm
- Thickness R. Ear ([1]; individual mouse, challenged right ear, 24 hours after oxazolone challenge, Monohydrate): 38 × 0.1 mm and 26 × 0.1 mm and 32 × 0.1 mm and 23 × 0.1 mm and 40 × 0.1 mm
- Thickness L. Ear ([1]; individual mouse, left ear, Monohydrate): 22 × 0.1 mm and 16 × 0.1 mm (2×) and 18 × 0.1 mm and 20 × 0.1 mm

Compound: CNCCc1cnc[nH]1 [NAMH]
- IC50 ([2]; read-out: ^1IC, (IC50 of reference compound)): 2.9 nM
- Ki ([2]; read-out: ^1K1 (Ki of reference ligand)): 0.75 nM

Compound: CCCCC1C(=O)N(c2ccccc2)N(c2ccccc2)C1=O [Phenylbutazone]
- anti-inflammatory response (percent inhibition) [3]: 112.2%

Compound: C[C@@H](N)Cc1c[nH]cn1 [R (α)-Methylhistamine, R-α-Methyl histamine, reference compound]
- Agonism, Ave. ([4]; average of two preparations): 100%
- Agonism ([4]; individual preparation): 100%
- Inc. of TP X ± SEM ([5]; group mean, N=3): 11.3 ± 7.2 cm H2O
- Inc. of TP Ind. ([5]; individual guinea pig, tracheal pressure after ovalbumin 50 μg/kg IV): 8.5 cm H2O and 25.0 cm H2O and 0.5 cm H2O
- % INH. ([5]; inhibition of induced bronchoconstriction relative to vehicle): 61.6%

Compound: O=C(O)c1cc(/N=N/c2ccc(S(=O)(=O)Nc3ccccn3)cc2)ccc1O [Sulfasalazine]
- Ratio Net ([6]; group mean minus blank-control): 0.181%
- Ratio Ind., X (group mean) ([6]; group mean): 0.551%
- Ratio Ind. (colon-to-body weight ratio) ([6]; individual rat, Colon (g)/8th B.W. × 100%): 0.496% and 0.508% and 0.650%
- % INH. ([6]; reduction in colon-to-body weight ratio relative to vehicle control): 49%

Compound: S=C(NC1CCCCC1)N1CCC(c2cnc[nH]2)CC1 [Thioperamide]
- Agonism, Ave. ([4]; average of two preparations): 0%
- Antagonism, Ave. ([4]; average of two preparations): 93%
- Antagonism ([4]; individual preparation, reduction of 0.3 μM R(α)-methylhistamine-induced relaxation): 90% and 96%
- Agonism ([4]; individual preparation): 0%

Compound: Cc1nnc2n1-c1sc(CCC(=O)N3CCOCC3)cc1C(c1ccccc1Cl)=NC2 [WEB-2086, reference compound]
- % Protection ([7]; PO one hour before PAF-acether 100 μg/kg IV): 60%
- No. of Survival ([7]; of 5 mice, one hour after PAF-acether 100 μg/kg IV, PO one hour before): 3

Compound: C[C@]12CCC(=O)C=C1CC[C@@H]1[C@@H]2[C@@H](O)C[C@@]2(C)[C@H]1CC[C@]2(O)C(=O)CO [hydrocortisone]
- anti-inflammatory response (percent inhibition) [3]: 132.6%

Compound: LEU-PRO-PRO-SER-ARG [synthetic peptide (crude 60%)]
- % tumor inhibition ([8]; I.P. injections or gavage on days 1-5, 6 mice): 58.6%
- Mean tumor wt. gain, gm ([8]; net tumor weight, I.P. injections or gavage on days 1-5, 6 mice): 1.45 gm
